{"source": "patent US20250302904A1", "about": "“EXTRACTS IN EUTECTIC SOLVENT OF OLIVE OIL POLYPHENOLS, COMPOSITIONS, USES AND METHODS OF PREPARATION THEREOF” (ACTIVE-ITALIA S.R.L., priority 2022, published 2025)", "key": {"[1]": {"assay": "Additional stability tests of oleocanthal and oleacein in water or formulated product (NaDES), 6 months", "assay_type": "physicochemical", "conditions": "for degradation with respect to control at time zero: formulated product (NaDES betaine/propylene glycol 1:3.3); for degradation: in water", "description": "FIG. 4. Stability over time (6 months) of oleacein and oleocanthal at 25° C. and 40° C. in water and in the formulated product (serum NaDES diluted in almond oil). The values represent standard averages and deviations (N=3). The significance tests were performed with one-way ANOVA (p<=0.05).\nAdditional stability tests of oleocanthal and oleacein in water or in NaDES (that is in NaDES mixture comprising betaine/propylene glycol 1:3.3) were performed for 6 months, at different temperatures. The results obtained from the stability tests over time (6 months) of oleacein and oleocanthal, at two different temperatures (25° C. and 40° C. (accelerated stability)), in water and in the formulated product, are shown in FIG. 4. […] In particular, in water, after six months at 25° C., there is a degradation of oleacein and oleocanthal by about 70% and l′80%, respectively. At 40° C. the degradation results to be still more evident: about 90% for oleacein and 80% for oleocanthal. On the contrary, in the product formulated according to the present invention (NaDES betaine/propylene glycol 1:3.3), the degradation of the active principles, with respect to control at time zero, results to be modest at 25° C. and by about 50% and 30% for oleacein and oleocanthal respectively at 40° C."}, "[2]": {"assay": "Stability test of oleocanthal and oleacein in NaDES or water, 30 days", "assay_type": "physicochemical", "conditions": "after 30 days, 10 mM", "description": "Oleocanthal and oleacein were dissolved at a final concentration equal to 10 mM in water or in NaDES (Betaine/Propylene glycol, Bet/Prop) and subjected to stability test."}, "[3]": {"conditions": "NaDES betaine/propylene glycol (1:3.3), 25° C."}, "[4]": {"conditions": "NaDES betaine/propylene glycol (1:3.3), 40° C."}}, "data": [{"smiles": "C/C=C(/C=O)[C@@H](CC=O)CC(=O)OCCc1ccc(O)cc1", "note": "[Oleocanthal]", "values": [{"measurement": "degradation with respect to control at time zero", "setting": "[1]; six months at 25° C.", "value": "modest"}, {"measurement": "degradation with respect to control at time zero", "setting": "[1]; six months at 40° C.", "value": "~30", "unit": "%"}, {"measurement": "degradation", "setting": "[1]; after six months at 25° C.", "value": "~80", "unit": "%"}, {"measurement": "degradation", "setting": "[1]; six months at 40° C.", "value": "~80", "unit": "%"}, {"measurement": "% loss", "setting": "[2]; H2O, 25° C.", "value": 7.5, "unit": "%"}, {"measurement": "% loss", "setting": "[2]; H2O, 40° C.", "value": 32.6, "unit": "%"}, {"measurement": "% loss", "setting": "[2]; [3]", "value": "~0", "unit": "%"}, {"measurement": "% loss", "setting": "[2]; [4]", "value": 1.4, "unit": "%"}]}, {"smiles": "CC=C(C=O)C(CC=O)CC(=O)OCCc1ccc(O)c(O)c1", "note": "(stereo in doubt) [Oleacein]", "values": [{"measurement": "degradation with respect to control at time zero", "setting": "[1]; six months at 25° C.", "value": "modest"}, {"measurement": "degradation with respect to control at time zero", "setting": "[1]; six months at 40° C.", "value": "about 50%"}, {"measurement": "degradation", "setting": "[1]; after six months at 25° C.", "value": "about 70%"}, {"measurement": "degradation", "setting": "[1]; six months at 40° C.", "value": "about 90%"}, {"measurement": "% loss", "setting": "[2]; H2O, 25° C.", "value": 8.1, "unit": "%"}, {"measurement": "% loss", "setting": "[2]; H2O, 40° C.", "value": 38.1, "unit": "%"}, {"measurement": "% loss", "setting": "[2]; [3]", "value": "~0", "unit": "%"}, {"measurement": "% loss", "setting": "[2]; [4]", "value": 4.5, "unit": "%"}]}]}
